The results in this text go back to patent US20240261274A1, “TREATMENT OF MYC-DRIVEN CANCERS WITH GSPT1 DEGRADERS” (MONTE ROSA THERAPEUTICS, INC., priority 2021, published 2024).

Structures are written as SMILES.

For one experiment, the system named is c-Myc. Put plainly: c-Myc levels in multiple myeloma and lymphoma cell lines after Compound 345 (western blot). The format is cell-based. The settings on record: 24 hr post treatment. From the text:
FIGS. 16A, 16B and 16C: Activity of Compound 345 in the c-Myc high multiple myeloma MM1S cell line. […] GAPDH was used as a loading control. […] Lenalidomide was used as a benchmark. 16C: Antiproliferative activity of Compound 345 (as indicated) following treatment with Compound 345 for 72 hr as assessed by Cell Titer Glo assay.
FIGS. 18A, 18B and 18C: Activity of Compound 345 in the c-Myc high WSU-DLCL2 lymphoma cell line. […] GAPDH was used as a loading control. 18B: Antiproliferative activity of Compound 345 (as indicated) following treatment with Compound 345 for 72 hr as assessed by Cell Titer Glo assay. […] Mice were dosed daily PO with vehicle or Compound 345 at 3, 10 mg/kg (as indicated). Tumor volumes were measured twice weekly. X-axis represents the number of days for treatment duration; y-axis represents mean tumor volume (in mm^3)±SEM. CHOP was used as a positive control for this model. Drug-free vehicle is represented by black circles; CHOP combination represented by light squares; Compound 345 3 mg/kg represented by triangles; Compound 345 10 mg/kg represented by dark squares.
FIGS. 19A, 19B, and 19C: Activity of Compound 345 in the c-Myc high DOHH-2 lymphoma cell line. […] GAPDH was used as a loading control. 19B: Antiproliferative activity of Compound 345 (as indicated) following treatment with Compound 345 for 72 hr as assessed by Cell Titer Glo assay. […] Mice were dosed daily PO with vehicle or Compound 345 at 3, 10 mg/kg (as indicated). Tumor volumes were measured twice weekly. X-axis represents the number of days for treatment duration; y-axis represents mean tumor volume (in mm^3)±SEM. CHOP was used as a positive control for this model.
Western blot analysis performed 24 hr post treatment initiation. GAPDH was used as a loading control. GSPT1 DC50 and Dmax as indicated.
(Immunoblotting shows a protein as a band on a membrane.)

In the next experiment the target is T1, ZFP91 (Homo sapiens, UniProt Q96JP5+Q96SW2).
T1 construct: endogenous in cells; host or cells: MM1 S (ATCC CRL-2974)
T1 sequence (Q96JP5 whole entry): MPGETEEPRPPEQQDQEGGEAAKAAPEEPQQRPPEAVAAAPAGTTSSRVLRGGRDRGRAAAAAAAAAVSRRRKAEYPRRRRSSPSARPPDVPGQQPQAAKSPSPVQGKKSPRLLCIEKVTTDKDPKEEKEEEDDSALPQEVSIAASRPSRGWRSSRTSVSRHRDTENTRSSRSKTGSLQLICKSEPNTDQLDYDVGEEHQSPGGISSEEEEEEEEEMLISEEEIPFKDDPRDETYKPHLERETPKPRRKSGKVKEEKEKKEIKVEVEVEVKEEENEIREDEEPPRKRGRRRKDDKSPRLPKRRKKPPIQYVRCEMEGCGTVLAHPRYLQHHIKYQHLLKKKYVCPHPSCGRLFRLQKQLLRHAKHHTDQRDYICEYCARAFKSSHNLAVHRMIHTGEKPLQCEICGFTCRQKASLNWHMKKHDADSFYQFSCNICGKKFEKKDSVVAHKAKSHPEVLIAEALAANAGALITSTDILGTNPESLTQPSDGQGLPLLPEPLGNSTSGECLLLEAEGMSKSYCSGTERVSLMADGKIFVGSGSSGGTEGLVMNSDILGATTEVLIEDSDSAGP
T1 sequence (Q96SW2 whole entry): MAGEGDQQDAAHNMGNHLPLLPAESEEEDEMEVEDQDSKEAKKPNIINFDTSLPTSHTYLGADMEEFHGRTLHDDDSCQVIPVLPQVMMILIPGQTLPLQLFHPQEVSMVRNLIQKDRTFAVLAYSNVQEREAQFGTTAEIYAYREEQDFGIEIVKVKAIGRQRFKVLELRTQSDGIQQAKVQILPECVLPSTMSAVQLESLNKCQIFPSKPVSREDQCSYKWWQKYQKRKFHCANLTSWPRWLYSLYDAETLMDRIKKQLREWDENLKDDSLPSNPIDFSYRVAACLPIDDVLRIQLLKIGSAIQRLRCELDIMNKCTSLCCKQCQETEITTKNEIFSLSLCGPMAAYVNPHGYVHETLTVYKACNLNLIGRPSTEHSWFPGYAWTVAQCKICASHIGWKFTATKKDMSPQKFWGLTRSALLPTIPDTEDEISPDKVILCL
T1 sequence (Q16531 whole entry partner): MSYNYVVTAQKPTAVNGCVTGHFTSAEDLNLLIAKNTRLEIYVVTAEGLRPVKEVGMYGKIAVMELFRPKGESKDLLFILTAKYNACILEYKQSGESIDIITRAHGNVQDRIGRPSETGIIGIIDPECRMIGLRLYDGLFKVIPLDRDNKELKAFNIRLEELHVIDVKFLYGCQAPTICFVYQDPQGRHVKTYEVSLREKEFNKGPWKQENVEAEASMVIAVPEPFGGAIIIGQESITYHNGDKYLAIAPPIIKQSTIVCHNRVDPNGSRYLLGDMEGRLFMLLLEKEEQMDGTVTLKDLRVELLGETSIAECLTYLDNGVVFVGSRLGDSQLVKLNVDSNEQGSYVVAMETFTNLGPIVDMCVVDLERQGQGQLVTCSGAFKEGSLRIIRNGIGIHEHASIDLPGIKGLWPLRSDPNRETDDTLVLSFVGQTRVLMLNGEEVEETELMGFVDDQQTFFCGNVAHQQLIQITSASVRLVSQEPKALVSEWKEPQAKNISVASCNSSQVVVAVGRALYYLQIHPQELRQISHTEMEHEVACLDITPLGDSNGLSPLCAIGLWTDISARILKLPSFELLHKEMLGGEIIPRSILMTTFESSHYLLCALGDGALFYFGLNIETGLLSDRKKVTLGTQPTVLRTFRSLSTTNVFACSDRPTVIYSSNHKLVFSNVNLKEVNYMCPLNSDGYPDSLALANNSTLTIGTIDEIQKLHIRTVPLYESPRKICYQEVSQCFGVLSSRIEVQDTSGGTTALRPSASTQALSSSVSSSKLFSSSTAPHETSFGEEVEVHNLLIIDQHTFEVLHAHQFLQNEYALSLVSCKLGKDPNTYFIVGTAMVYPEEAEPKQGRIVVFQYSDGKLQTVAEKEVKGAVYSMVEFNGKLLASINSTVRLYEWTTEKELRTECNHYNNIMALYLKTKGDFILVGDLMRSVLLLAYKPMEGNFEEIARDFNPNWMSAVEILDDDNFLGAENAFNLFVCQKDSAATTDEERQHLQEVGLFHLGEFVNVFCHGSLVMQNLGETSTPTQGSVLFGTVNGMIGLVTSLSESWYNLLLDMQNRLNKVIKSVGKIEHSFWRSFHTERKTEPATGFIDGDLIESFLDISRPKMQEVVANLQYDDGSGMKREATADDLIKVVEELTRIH
Put plainly: Selectivity western blot assay in MM1 S cells, ZFP91. The format is cell-based. Set-up: key: A represents no degradation observed at 30 μM; B represents trace degradation at 30 μM (below 20%); C represents weak degradation at 30 μM (below 50%); D represents degradation at 30 μM (>90%); E represents degradation at 3 μM (>90%); F represents degradation at 0.3 μM (>90%). The settings on record: MM1 S cells, 0.3, 3 and 30 μM, 6 hours. Here is the method:
MM1 S cells were purchased from ATCC (cat. Number CRL-2974), sub-cultured in 90% RPMI 1640 with 10% FBS, supplemented with 1×P/S and incubated at 37° C., 5% CO2. Compounds were stored as 10 mM DMSO stock. For the assay, MM1 S cells (3 million cells/well) were plated in 6-well plates and incubated over night. Cells were treated with respective compounds using a serial dilution: 0.3 μM, 3 μM and 30 μM as well as a vehicle only (DMSO) control for 6 hours. Media with suspension cells was subsequently transferred to 15 mL conical tubes, wells rinsed twice with ice-cold PBS and merged with cell suspension in respective 15 mL conical tube. Cells were spinned down, supernatant aspirated, pellets resuspended in ice-cold PBS and transferred to microtubes. Cells were spinned down, supernatant aspirated and pellets resuspended in 120 μL RIPA lysis buffer supplemented with protease and phosphatase inhibitors. Cell lysates were incubated on ice for 20 minutes followed by centrifugation at >20,000×g for 5 min. Supernatants were transferred to fresh microtubes and stored at −80° C. Total protein concentration was determined using a BCA assay with a BSA standard curve and concentration of all samples was adjusted to 1 mg/mL. 25 μL 4×LDS sample buffer supplemented with 100 mM DTT was added to 75 μL sample. Samples were centrifuged (8,000×g, 1 min) and incubated at 95° C. for 5 min followed by another centrifugation step (8,000×g, 1 min). 20 μL of each sample was loaded on a 4-12% gel alongside a protein molecular weight marker. Gels were run in the presence of MOPS buffer at 80 Volts for 30 min, followed by 120 Volts for 1.5 h and proteins subsequently transferred onto nitrocellulose membranes at 20 Volts for 7 min using an iBlot2 Gel Transfer Device. Membranes were then cut horizontally into two pieces, covering 80-50 kDa and 50-25 kDa. Blocking the membranes was performed by gently shaking in 5% (w/v) skim milk in TSB-T for 1 hr at room temperature. All primary antibodies were used at a 1/1000 in 5% (w/v) BSA dissolved in TBST and incubated with membranes over night at 4° C. After three washes with 1×TBST for 5 min, HRP-coupled secondary antibodies diluted in 5% (w/v) BSA/TBST (Goat Anti-Rb IgG, dil. 1/10,000; Goat Anti-Mouse IgG, dil. 1/5000) were added for 1 hr at room temperature. After three washes with 1×TBST (5 minutes each), membranes were incubated with ECL reagent for 1 min at room temperature. Chemiluminescence signals were then detected using a LAS-4000 system with default settings and signals quantified using Image Studio Lite software (version 5.2). Membrane parts previously incubated with antibody against CK1 alpha were stripped off antibodies by incubating with stripping buffer for 30 minutes followed by three washed with TBST (5 min each), blocking with 5% (w/v) skim milk for 1 hr, and incubation with primary antibody against uGAPDH overnight at 4° C. Subsequent washes, incubation with secondary antibody and signal acquisition were performed as described above.

As for `O=C1CCC(N2Cc3ccc(COC(=O)Nc4cc(OC(F)(F)F)ccc4F)cc3C2=O)C(=O)N1` (centres unmarked) [Compound 345, (2-(2,6-dioxopiperidin-3-yl)-3-oxoisoindolin-5-yl)methyl(2-fluoro-5-(trifluoromethoxy)phenyl)carbamate], the c-Myc level entry in the experiment with c-Myc (DOHH-2 lymphoma cell line), in the experiment with c-Myc (MM1S multiple myeloma cell line) and in the experiment on c-Myc (WSU-DLCL2 lymphoma cell line) was “downregulation of c-Myc” in each case. As for `Cc1c(Cl)cc(NC(=O)NCc2ccc3c(c2)C(=O)N(C2CCC(=O)NC2=O)C3)cc1CN1C2CCC1COC2` (centres unmarked) [Compound 138], on ZFP91, the ZFP91 degradation entry is given as “A”. Turning to `Cc1ccc(NC(=O)NCc2ccc3c(c2)C(=O)N(C2CCC(=O)NC2=O)C3)cc1Cl` (centres unmarked) [Compound 8], the ZFP91 degradation entry on ZFP91 is reported as “B (B represents trace degradation at 30 μM (below 20%))”.
